This is an account of results in patent publication US9856218B2, “Inhibitors of PRMT5 and methods of their use” (Ohio State Innovation Foundation, priority 2013, dated 2018).

Where two headings read alike, the source gives them in different places.

The target in assay [1] is T1, affinity-purified hSWI/SNF associated PRMT5 (Homo sapiens, UniProt O14744).
T1 construct: made in house
In words: Histone methyltransferase assay, [3H]SAM. In kind it is biochemical. The settings on record: for inhibition of PRMT5 methylase activity, potency among inhibitors: FIG. 33A. As to the method: Histone methylation was performed in the presence of DMSO, and 1-40 μM inhibitor compounds. […] After 1.5 h incubation at 30° C., reaction mixtures were spotted on Whatman P-81 filter paper, washed five times with 10 mL of […] sodium carbonate buffer (pH 9.0) to remove unincorporated [3H]SAM, and methylated peptides were detected by scintillation counting.
Type II PRMT enzymes repress gene transcription and symmetrically dimethylate H3R8 and H4R3, while type I PRMT enzymes activate gene transcription and asymmetrically dimethylate H4R3. Purified PRMT5, PRMT1, PRMT4 and PRMT7 were obtained to perform the assay.
Histone methylation was performed in the presence of DMSO, and 1-40 μM HLCL-32, HLCL-10, HLCL-61 and HLCL-64. […] After a 1.5 h incubation at 30° C. reaction mixtures were spotted on Whatman P-81 filter paper, washed five times with 10 mL of […] sodium carbonate buffer (pH 9.0) to remove unincorporated [^3H]SAM, and methylated peptides were detected by scintillation counting.

The subject of the next assay is KG-1. Put plainly: MTS growth inhibition assay. In kind it is cell-based. Particulars: Homo sapiens; KG-1, P53 mutation, 48 h. As to the method: (§1) Clonogenic assays were set up by plating 1×10^3 cell/mL in semi-solid methylcellulose medium (MethoCult, Stem Cell Technologies). Colonies were counted after 10-14 days using an inverted microscope. Growth inhibition assays were measured using a colorimetric MTS assay: 5×10^4 cells were plated in 100 μL final volume in a 96-well plate in the presence of different concentrations of C12 for 24, 48 and 72 hours at 37° C. Afterwards, 20 μL of the CellTiter 96W AQueous One Solution Reagent, which contains tetrazolium compound [3-(4,5-[…])-5-(3-carboxymethoxyphenyl)-2-(4-sulfophenyl)-2H-tetrazolium, inner salt; MTS] and an electron coupling reagent (phenazine ethosulfate; PES) (Promega, Madison Wis.), was added to each well. Within 1-4 hours of incubation at 37° C., the optical density at 490 and 690 nm was measured. Cell viability was calculated with respect to the control samples and reference background wavelength at 690 nm. At least three independent experiments were performed. Growth curve assays were done by counting live cells using Trypan blue exclusion and inverted microscope for >12 days after plating the cells in 1×10^5 concentrations.
(§2) PRMT5 inhibition by C12 was also effective in promoting apoptosis and differentiation.
(§3) Referring to FIGS. 34A and 34B, a colorimetric MTS assay was used to measure the proliferation rate of AML cell lines and primary blasts from patients after 48 hours incubation with a PRMT5 inhibitor compound (HLCL61 or C12). The dose-dependent decrease in absorbance indirectly correlates with the number of metabolically active live cells. The IC50 values represent the concentration of the compound at which 50% cell death was achieved.
(In general: Tetrazolium dyes change colour on reduction, which living cells bring about.)

The test system of another assay is Kasumi-1. Put plainly: MTS growth inhibition assay. Format: cell-based. The settings on record: Homo sapiens, Kasumi-1, KIT mutation, read-out: IC50 μM. As to the method:
as §1, §2, §3

The next assay deals with MOLM-13. In words: MTS growth inhibition assay. Particulars: Homo sapiens; MOLM-13, FLT3-ITD+, 48 h. Format: cell-based. As to the method:
as §1, §2, §3

The next assay has as its system MV411. In words: MTS growth inhibition assay. The settings on record: Homo sapiens, MV4-11, MV411, FLT3-ITD+, read-out: IC50 μM. Format: cell-based. As to the method: as §1, §2, §3
Another assay has as its system OCI-AML3. Put plainly: MTS growth inhibition assay. The settings on record: Homo sapiens, OCI-AML-3; OCI-AML3, NPM1+, 48 h. Format: cell-based. As to the method:
as §1, §2, §3

In a further assay the test system is THP-1. In words: MTS growth inhibition assay. Particulars: Homo sapiens; THP-1, FLT3-WT, 48 h. In kind it is cell-based. As to the method:
as §1, §2, §3

T1 sequence (O14744 whole entry): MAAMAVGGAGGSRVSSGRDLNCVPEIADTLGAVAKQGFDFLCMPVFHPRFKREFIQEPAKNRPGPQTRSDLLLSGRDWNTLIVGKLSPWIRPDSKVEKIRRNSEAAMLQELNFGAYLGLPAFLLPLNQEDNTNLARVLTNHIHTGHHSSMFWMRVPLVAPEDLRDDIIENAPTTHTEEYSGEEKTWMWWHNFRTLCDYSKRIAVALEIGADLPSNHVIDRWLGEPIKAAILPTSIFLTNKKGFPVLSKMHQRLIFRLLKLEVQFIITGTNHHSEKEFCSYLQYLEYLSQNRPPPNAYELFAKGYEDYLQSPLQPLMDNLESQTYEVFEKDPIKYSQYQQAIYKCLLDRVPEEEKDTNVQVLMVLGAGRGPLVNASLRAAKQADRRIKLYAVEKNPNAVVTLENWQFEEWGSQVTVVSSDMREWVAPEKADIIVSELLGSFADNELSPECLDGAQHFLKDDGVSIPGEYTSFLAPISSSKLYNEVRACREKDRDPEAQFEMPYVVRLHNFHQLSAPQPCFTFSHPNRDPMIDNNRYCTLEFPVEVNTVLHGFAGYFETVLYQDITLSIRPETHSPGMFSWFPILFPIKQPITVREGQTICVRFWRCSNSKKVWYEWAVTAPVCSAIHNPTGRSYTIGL
T1 sequence (Q9BQA1 whole entry partner): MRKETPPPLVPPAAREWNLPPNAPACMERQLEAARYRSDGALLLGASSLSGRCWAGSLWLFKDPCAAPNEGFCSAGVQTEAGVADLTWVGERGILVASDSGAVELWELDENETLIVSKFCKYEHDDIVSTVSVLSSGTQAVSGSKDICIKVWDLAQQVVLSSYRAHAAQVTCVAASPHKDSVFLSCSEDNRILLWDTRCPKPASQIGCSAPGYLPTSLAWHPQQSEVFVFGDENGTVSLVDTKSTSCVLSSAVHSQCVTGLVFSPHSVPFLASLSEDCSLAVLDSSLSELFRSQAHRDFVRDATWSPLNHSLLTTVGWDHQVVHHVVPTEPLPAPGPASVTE

Turning to `CCn1c2ccccc2c2cc(CNCc3ccccc3OC)ccc21` [HLCL-61], the “inhibition of PRMT5 enzyme” value in assay [1] (10 μM, FIG. 17B) is reported as “the only enzyme that is affected is PRMT5”. Further, the IC50 (as a rule, the concentration that inhibits the measured activity by half) in assay [1] (FIG. 16, 1-40 μM compound, HeLa S3 core histones, read-out: PRMT5 methylation activity IC50) is around 5 µM; in the assay with KG-1, 7.21 µM; in the assay on Kasumi-1 (24 h, 24 h), 6.99 µM; in the assay on Kasumi-1 (48 h, 48 h) it was 7.21 µM; in the assay on Kasumi-1 (72 h, 72 h), 5.63 µM; with MOLM-13, 21.5 µM. In addition, the half-inhibitory concentration (IC50) in the assay on MV411 (24 h, 24 h) stood at 17.9 µM; in the assay with MV411 (48 h, 48 h), 14.1 µM; in the assay on MV411 (72 h, 72 h) it was 10.9 µM; in the assay with OCI-AML3, 19.1 µM; in the assay with THP-1, 16.7 µM. For the same compound, the “inhibition of PRMT5 methylase activity, potency among inhibitors” value in assay [1] (listed as C12) is reported as “most potent of these inhibitors”; in assay [1] (listed as CMPD 12), “most potent in inhibiting enzymatic activity of PRMT5”.
